# According to patent US6740642B2, “Macrolides with antibacterial activity” (BAsilea Parmaceutica AG, priority 2000, dated 2004):
# Where two headings read alike, the source gives them in different places.
# Tests used:
# St. pneumoniae 1/4 = assay: MIC, standard microdilution; assay type: cell-based, Streptococcus pneumoniae
# Summary of the method: (§1)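 Antibacterial activity was measured by the standard microdilution technique. The method followed the NCCLS dilution standard for aerobically growing bacteria (M7-A4).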
# St. pneumoniae SL199T = assay: MIC, standard microdilution; assay type: cell-based, Streptococcus pneumoniae
# Summary of the method: as §1
# St. pneumoniae 1/1 = assay: MIC, standard microdilution; assay type: cell-based, Streptococcus pneumoniae
# Summary of the method: as §1
# St. pneumoniae 12288 = assay: MIC, standard microdilution; assay type: cell-based, Streptococcus pneumoniae
# Summary of the method: as §1
# H. influenzae 4139 = assay: MIC, agar dilution, HTM medium; assay type: cell-based, Haemophilus influenzae
# From the text: (§2) The biological activities of compounds of the present invention against Haemophilus influenzae have been determined by standard agar dilution method using HTM medium (National Committee for Clinical Laboratory Standards. 1997. Methods for dilution antimicrobial susceptibility tests for bacteria that grow aerobically, 4th edition. Approved standard M7-A4. National Committee for Clinical Laboratory Standards, Wayne, Pa.).
# H. influenzae 3201 = assay: MIC, agar dilution, HTM medium; assay type: cell-based, Haemophilus influenzae
# From the text: as §2
# H. influenzae QK 50 = assay: MIC, agar dilution, HTM medium; assay type: cell-based, Haemophilus influenzae
# From the text: as §2
# H. influenzae 23145 = assay: MIC, agar dilution, HTM medium; assay type: cell-based, Haemophilus influenzae
# From the text: as §2
# H. influenzae QK 12/87 = assay: MIC, agar dilution, HTM medium; assay type: cell-based, Haemophilus influenzae
# From the text: as §2
# H. influenzae 23369 = assay: MIC, agar dilution, HTM medium; assay type: cell-based, Haemophilus influenzae
# From the text: as §2
# H. influenzae 3457 = assay: MIC, agar dilution, HTM medium; assay type: cell-based, Haemophilus influenzae
# From the text: as §2
# H. influenzae Rd KW20 = assay: MIC, agar dilution, HTM medium; assay type: cell-based, Haemophilus influenzae
# From the text: as §2
# H. influenzae 12214 = assay: MIC, agar dilution, HTM medium; assay type: cell-based, Haemophilus influenzae
# From the text: as §2
# H. influenzae H20 HDL = assay: MIC, agar dilution, HTM medium; assay type: cell-based, Haemophilus influenzae
# From the text: as §2
# H. influenzae 3640 = assay: MIC, agar dilution, HTM medium; assay type: cell-based, Haemophilus influenzae
# From the text: as §2
# H. influenzae H28 HEL = assay: MIC, agar dilution, HTM medium; assay type: cell-based, Haemophilus influenzae
# From the text: as §2
# H. influenzae 1 = assay: MIC, agar dilution, HTM medium; assay type: cell-based, Haemophilus influenzae
# From the text: as §2
# H. influenzae Christy = assay: MIC, agar dilution, HTM medium; assay type: cell-based, Haemophilus influenzae
# From the text: as §2
# H. influenzae H13 LAH = assay: MIC, agar dilution, HTM medium; assay type: cell-based, Haemophilus influenzae
# From the text: as §2
# H. influenzae 2947 = assay: MIC, agar dilution, HTM medium; assay type: cell-based, Haemophilus influenzae
# From the text: as §2
# H. influenzae ATCC 49247 = assay: MIC, agar dilution, HTM medium; assay type: cell-based, Haemophilus influenzae
# From the text: as §2
# H. influenzae 11 = assay: MIC, agar dilution, HTM medium; assay type: cell-based, Haemophilus influenzae
# From the text: as §2
# H. influenzae H36 ODL = assay: MIC, agar dilution, HTM medium; assay type: cell-based, Haemophilus influenzae
# From the text: as §2
# H. influenzae B 1501 = assay: MIC, agar dilution, HTM medium; assay type: cell-based, Haemophilus influenzae
# From the text: as §2
# H. influenzae ATCC 9334 = assay: MIC, agar dilution, HTM medium; assay type: cell-based, Haemophilus influenzae
# From the text: as §2
# S. aureus ATCC29213 = assay: MIC, standard microdilution; assay type: cell-based, Staphylococcus aureus
# Summary of the method: as §1
# S. aureus 1086 = assay: MIC, standard microdilution; assay type: cell-based, Staphylococcus aureus
# Summary of the method: as §1
# S. aureus 745 = assay: MIC, standard microdilution; assay type: cell-based, Staphylococcus aureus
# Summary of the method: as §1
# E. coli ATCC25922 = assay: MIC, standard microdilution; assay type: cell-based
# Summary of the method: as §1
# [1] = system: P. aeruginosa ATCC27853 (+Ery. 32 μg/ml); assay: MIC, standard microdilution; assay type: cell-based
# Summary of the method: as §1
# [2] = Streptococcus pneumoniae, read-out: minimum inhibitory concentration (MIC)
# [3] = Haemophilus influenzae, read-out: MIC
# [4] = Staphylococcus aureus, read-out: minimum inhibitory concentration (MIC)
compound,measurement,setting,value
"CC[C@H]1OC(=O)[C@H](C)C(=O)[C@H](C)[C@@H](O[C@@H]2O[C@H](C)C[C@H](N(C)C)[C@H]2O)[C@](C)(OC)C[C@@H](C)C(=O)[C@H](C)[C@H]2[C@H](SCCn3ccc(=O)[nH]c3=O)C(=O)O[C@@]21C [Compound I-6, (3S,3aR,4R,6R,8R,9R,10R,12R,15R,15aS)-15-Ethyloctahydro-8-methoxy-4,6,8,10,12,15a-hexamethyl-3-[[2-[2,4-1H,3H-pyriminedione-1-yl]ethyl]-thio]-9-[[3,4,6-trideoxy-3-(dimethylamino)-β-D-xylo-hexopyranosyl]oxy]-2H-furo[2,3-c]oxacyclotetradecin-2,5,11,13(3H,6H,12H)-tetrone]",minimum inhibitory concentration (MIC),St. pneumoniae 1/4,<=0.12 μg/ml
same,minimum inhibitory concentration (MIC),St. pneumoniae SL199T,1 µg/mL
same,minimum inhibitory concentration (MIC),St. pneumoniae 1/1,<=0.12 μg/ml
same,minimum inhibitory concentration (MIC),St. pneumoniae 12288,4 µg/mL
same,MIC,H. influenzae 4139,2 µg/mL
same,MIC,H. influenzae 3201,4 µg/mL
same,MIC,H. influenzae QK 50,2 µg/mL
same,MIC,H. influenzae 23145,4 µg/mL
same,MIC,H. influenzae QK 12/87,1 µg/mL
same,MIC,H. influenzae 23369,4 µg/mL
same,MIC,H. influenzae 3457,0.25 µg/mL
same,MIC,H. influenzae Rd KW20,2 µg/mL
same,MIC,H. influenzae 12214,4 µg/mL
same,MIC,H. influenzae H20 HDL,1 µg/mL
same,MIC,H. influenzae 3640,2 µg/mL
same,MIC,H. influenzae H28 HEL,2 µg/mL
same,MIC,H. influenzae 1,4 µg/mL
same,MIC,H. influenzae Christy,2 µg/mL
same,MIC,H. influenzae H13 LAH,2 µg/mL
same,MIC,H. influenzae 2947,4 µg/mL
same,MIC,H. influenzae ATCC 49247,2 µg/mL
same,MIC,H. influenzae 11,4 µg/mL
same,MIC,H. influenzae H36 ODL,4 µg/mL
same,MIC,H. influenzae B 1501,2 µg/mL
same,MIC,H. influenzae ATCC 9334,2 µg/mL
same,minimum inhibitory concentration (MIC),S. aureus ATCC29213,<=0.12 μg/ml
same,minimum inhibitory concentration (MIC),S. aureus 1086,<=0.12 μg/ml
same,minimum inhibitory concentration (MIC),S. aureus 745,>16 µg/mL
same,minimum inhibitory concentration (MIC),E. coli ATCC25922,>16 µg/mL
same,minimum inhibitory concentration (MIC),[1],>16 µg/mL
"CC[C@H]1OC(=O)[C@H](C)C(=O)[C@H](C)[C@@H](O[C@@H]2O[C@H](C)C[C@H](N(C)C)[C@H]2O)[C@](C)(OC)C[C@@H](C)C(=O)[C@H](C)[C@H]2[C@H](SCCn3cc(C)c(=O)[nH]c3=O)C(=O)O[C@@]21C [Compound I-7, (3S,3aR,4R,6R,8R,9R,10R,12R,15R,15aS)-15-Ethyloctahydro-8-methoxy-4,6,8,10,12,15a-hexamethyl-3-[[2-[5-methyl-2,4-1H,3H-pyrimidinedione-1-yl]ethyl]thio]-9-[[3,4,6-trideoxy-3-(dimethylamino)-β-D-xylo-hexopyranosyl]oxy]-2H-furo[2,3-c]oxacyclotetradecin-2,5,11,13(3H,6H,12H)-tetrone]",MIC,St. pneumoniae 1/4; [2],≤ 0.12 µg/mL
same,MIC,St. pneumoniae SL199T; [2],1 µg/mL
same,MIC,St. pneumoniae 1/1; [2],≤ 0.12 µg/mL
same,MIC,St. pneumoniae 12288; [2],8 µg/mL
same,MIC,H. influenzae 4139; [3],2 µg/mL
same,MIC,H. influenzae 3201; [3],4 µg/mL
same,MIC,"H. influenzae QK 50; Haemophilus influenzae, QK50, read-out: MIC",4 µg/mL
same,MIC,H. influenzae 23145; [3],4 µg/mL
same,MIC,"H. influenzae QK 12/87; Haemophilus influenzae, QK12/87, read-out: MIC",2 µg/mL
same,MIC,H. influenzae 23369; [3],8 µg/mL
same,MIC,H. influenzae 3457; [3],0.5 µg/mL
same,MIC,"H. influenzae Rd KW20; Haemophilus influenzae, RDKW20, read-out: MIC",4 µg/mL
same,MIC,H. influenzae 12214; [3],4 µg/mL
same,MIC,"H. influenzae H20 HDL; Haemophilus influenzae, H20HDL, read-out: MIC",2 µg/mL
same,MIC,H. influenzae 3640; [3],2 µg/mL
same,MIC,"H. influenzae H28 HEL; Haemophilus influenzae, H28HEL, read-out: MIC",2 µg/mL
same,MIC,H. influenzae 1; [3],4 µg/mL
same,MIC,H. influenzae Christy; [3],4 µg/mL
same,MIC,"H. influenzae H13 LAH; Haemophilus influenzae, H13LAH, read-out: MIC",4 µg/mL
same,MIC,H. influenzae 2947; [3],4 µg/mL
same,MIC,"H. influenzae ATCC 49247; Haemophilus influenzae, ATCC49247, read-out: MIC",4 µg/mL
same,MIC,H. influenzae 11; [3],4 µg/mL
same,MIC,"H. influenzae H36 ODL; Haemophilus influenzae, H36ODL, read-out: MIC",8 µg/mL
same,MIC,"H. influenzae B 1501; Haemophilus influenzae, B1501, read-out: MIC",4 µg/mL
same,MIC,"H. influenzae ATCC 9334; Haemophilus influenzae, ATCC9334, read-out: MIC",4 µg/mL
same,MIC,S. aureus ATCC29213; [4],≤ 0.12 µg/mL
same,MIC,S. aureus 1086; [4],≤ 0.12 µg/mL
same,MIC,S. aureus 745; [4],> 16 µg/mL
same,MIC,"E. coli ATCC25922; Escherichia coli, read-out: minimum inhibitory concentration (MIC)",> 16 µg/mL
same,minimum inhibitory concentration (MIC),[1],>16 µg/mL
